According to ChEMBL document CHEMBL1201862, “PubChem BioAssay data set” (2004):
The source made the active and inactive calls.

What was measured:
[1] = Late stage counterscreen results from the probe development effort to identify activators of signal transducer and activator of transcription 1 (STAT1): luminescence-based cell-based dose response assay to identify cytotoxic compounds.; assay type: functional
[2] = molecular target: Eukaryotic translation initiation factor 4E (Mus musculus, UniProt P63073); assay: blockers of eIF4G binding by eIF4E – biochemical, TR-FRET, dose response (AID 855); assay type: functional;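 note: potency for disrupting eIF4E binding to eIF4GI seen as loss of FRET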
Sequence of Eukaryotic translation initiation factor 4E (P63073 whole entry): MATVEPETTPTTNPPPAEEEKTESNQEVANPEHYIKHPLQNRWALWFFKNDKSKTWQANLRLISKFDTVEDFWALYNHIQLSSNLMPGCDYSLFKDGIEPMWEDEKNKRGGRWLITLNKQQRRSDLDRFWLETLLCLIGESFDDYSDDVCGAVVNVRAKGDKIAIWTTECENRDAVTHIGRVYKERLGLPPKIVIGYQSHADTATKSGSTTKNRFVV

Aminopeptidase N = molecular target: T1, Aminopeptidase N (Plasmodium falciparum FcB1/Columbia, UniProt O96935); assay: malaria alanyl aminopeptidase activity blockers – biochemical, fluorogenic H-Leu-NHMec substrate, 1536-well (AID 1445); design: species or system Plasmodium falciparum 3D7, 3D7
T1 sequence (O96935 whole entry): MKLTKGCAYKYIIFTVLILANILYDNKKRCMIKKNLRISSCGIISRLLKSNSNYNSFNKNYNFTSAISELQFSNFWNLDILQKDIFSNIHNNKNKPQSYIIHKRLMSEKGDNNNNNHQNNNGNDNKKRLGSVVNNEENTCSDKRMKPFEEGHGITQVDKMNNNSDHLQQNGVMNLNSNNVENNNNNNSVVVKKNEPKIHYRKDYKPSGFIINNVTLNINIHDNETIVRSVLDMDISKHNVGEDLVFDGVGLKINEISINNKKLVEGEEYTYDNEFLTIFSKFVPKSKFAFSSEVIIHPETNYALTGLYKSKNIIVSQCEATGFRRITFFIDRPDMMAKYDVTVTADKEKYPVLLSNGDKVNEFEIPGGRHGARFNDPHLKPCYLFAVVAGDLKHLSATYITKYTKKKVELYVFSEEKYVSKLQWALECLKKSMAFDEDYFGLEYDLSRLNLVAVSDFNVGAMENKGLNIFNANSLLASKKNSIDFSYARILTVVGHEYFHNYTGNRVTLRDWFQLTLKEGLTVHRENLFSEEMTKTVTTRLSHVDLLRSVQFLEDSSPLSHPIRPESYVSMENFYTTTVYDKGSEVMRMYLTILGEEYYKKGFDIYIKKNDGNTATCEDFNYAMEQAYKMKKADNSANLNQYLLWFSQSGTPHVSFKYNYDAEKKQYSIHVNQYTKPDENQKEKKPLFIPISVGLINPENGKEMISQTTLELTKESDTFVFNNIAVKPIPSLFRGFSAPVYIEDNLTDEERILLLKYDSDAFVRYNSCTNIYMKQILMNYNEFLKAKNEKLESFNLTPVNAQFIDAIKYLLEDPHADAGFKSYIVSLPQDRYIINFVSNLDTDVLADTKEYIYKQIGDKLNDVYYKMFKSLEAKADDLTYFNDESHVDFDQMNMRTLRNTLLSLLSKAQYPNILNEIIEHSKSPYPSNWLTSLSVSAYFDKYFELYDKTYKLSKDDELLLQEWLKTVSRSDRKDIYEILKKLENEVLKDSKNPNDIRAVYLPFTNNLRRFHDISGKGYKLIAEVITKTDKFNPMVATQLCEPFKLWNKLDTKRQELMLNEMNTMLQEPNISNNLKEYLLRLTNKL

[3] = molecular target: T2, RNA-binding protein pos-1 (Caenorhabditis elegans, UniProt G5EF15); assay: disruptors of C. elegans POS-1 RNA interaction – biochemical, fluorescence polarization, dose response (AID 1964);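 note: purified POS-1 fused to maltose binding protein made in E. coli; potency of compounds blocking POS-1 binding to fluorescent RNA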
T2 sequence (G5EF15 whole entry): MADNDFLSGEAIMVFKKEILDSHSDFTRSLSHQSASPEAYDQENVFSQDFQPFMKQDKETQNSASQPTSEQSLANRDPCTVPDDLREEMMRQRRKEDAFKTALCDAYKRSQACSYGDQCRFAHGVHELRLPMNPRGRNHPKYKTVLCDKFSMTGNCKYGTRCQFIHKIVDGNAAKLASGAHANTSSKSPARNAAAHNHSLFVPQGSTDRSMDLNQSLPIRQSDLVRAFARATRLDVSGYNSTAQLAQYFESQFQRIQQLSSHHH

Ephrin type-A receptor 4 = Ephrin type-A receptor 4 (Mus musculus, UniProt Q03137); assay: EphA4 ligand-binding antagonists – biochemical, colorimetric, mouse EphA4, primary screen (AID 689); assay type: functional
Sequence of Ephrin type-A receptor 4 (Q03137 whole entry): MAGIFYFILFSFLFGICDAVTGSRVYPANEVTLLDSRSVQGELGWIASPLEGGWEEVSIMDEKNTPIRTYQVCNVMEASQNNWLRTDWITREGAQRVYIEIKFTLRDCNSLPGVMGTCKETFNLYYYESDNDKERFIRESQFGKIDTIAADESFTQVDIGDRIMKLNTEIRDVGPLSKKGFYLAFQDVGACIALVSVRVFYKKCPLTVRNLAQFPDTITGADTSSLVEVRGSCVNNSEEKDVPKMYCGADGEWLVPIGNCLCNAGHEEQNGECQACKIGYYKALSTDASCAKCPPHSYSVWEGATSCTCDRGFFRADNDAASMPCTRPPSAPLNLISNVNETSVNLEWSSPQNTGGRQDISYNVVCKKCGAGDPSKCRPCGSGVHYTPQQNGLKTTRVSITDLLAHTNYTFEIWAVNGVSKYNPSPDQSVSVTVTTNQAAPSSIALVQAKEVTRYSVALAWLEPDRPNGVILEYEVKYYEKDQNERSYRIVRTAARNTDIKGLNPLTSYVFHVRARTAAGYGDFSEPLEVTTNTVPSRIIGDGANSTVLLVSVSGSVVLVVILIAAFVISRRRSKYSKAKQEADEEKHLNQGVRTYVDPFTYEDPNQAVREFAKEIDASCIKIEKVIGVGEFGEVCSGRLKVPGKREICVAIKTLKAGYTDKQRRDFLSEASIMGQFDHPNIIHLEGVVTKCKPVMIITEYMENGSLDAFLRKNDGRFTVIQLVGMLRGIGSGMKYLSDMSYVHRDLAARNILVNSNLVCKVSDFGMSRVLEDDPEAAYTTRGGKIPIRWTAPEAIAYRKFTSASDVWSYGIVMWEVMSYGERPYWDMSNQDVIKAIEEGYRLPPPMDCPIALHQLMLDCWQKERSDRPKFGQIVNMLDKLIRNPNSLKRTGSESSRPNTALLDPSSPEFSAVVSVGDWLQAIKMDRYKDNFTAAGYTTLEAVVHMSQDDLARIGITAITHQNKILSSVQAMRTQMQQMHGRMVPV

[4] = molecular target: T3, Zinc finger protein mex-5 (Caenorhabditis elegans, UniProt Q9XUB2); assay: potency of MEX-5 RNA-binding blockers – biochemical, C. elegans, fluorescence polarization, dose response (AID 1960)
T3 sequence (Q9XUB2 whole entry): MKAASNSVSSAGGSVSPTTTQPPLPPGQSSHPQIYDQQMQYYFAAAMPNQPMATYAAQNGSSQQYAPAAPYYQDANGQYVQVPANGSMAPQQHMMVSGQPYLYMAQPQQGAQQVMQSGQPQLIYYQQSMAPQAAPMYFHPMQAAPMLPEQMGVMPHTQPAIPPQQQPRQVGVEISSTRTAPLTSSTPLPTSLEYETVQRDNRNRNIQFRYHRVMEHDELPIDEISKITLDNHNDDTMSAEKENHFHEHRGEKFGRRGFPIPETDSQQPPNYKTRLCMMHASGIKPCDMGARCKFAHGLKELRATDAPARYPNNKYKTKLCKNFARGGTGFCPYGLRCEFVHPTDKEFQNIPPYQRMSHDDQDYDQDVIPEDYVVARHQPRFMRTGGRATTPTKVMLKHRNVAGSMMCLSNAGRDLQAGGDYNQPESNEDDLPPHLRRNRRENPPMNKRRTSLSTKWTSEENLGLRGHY

[5] = molecular target: Induced myeloid leukemia cell differentiation protein Mcl-1 (Homo sapiens, UniProt Q07820); assay type: functional
Sequence of Induced myeloid leukemia cell differentiation protein Mcl-1 (Q07820 whole entry): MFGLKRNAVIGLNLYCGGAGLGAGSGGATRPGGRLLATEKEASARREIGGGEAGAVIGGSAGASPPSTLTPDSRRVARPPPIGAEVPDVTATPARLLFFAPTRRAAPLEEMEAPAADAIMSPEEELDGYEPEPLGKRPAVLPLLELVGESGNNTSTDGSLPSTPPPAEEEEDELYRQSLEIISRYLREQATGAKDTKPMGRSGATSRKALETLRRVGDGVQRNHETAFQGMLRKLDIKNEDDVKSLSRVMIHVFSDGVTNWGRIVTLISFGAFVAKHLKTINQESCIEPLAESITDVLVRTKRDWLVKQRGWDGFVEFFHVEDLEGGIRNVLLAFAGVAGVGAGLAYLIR

[6] = viability loss of HPDE-C7K cells – cell-based, fluorescence, HTS, primary screen (AID 431); assay type: functional; conditions: Homo sapiens
[7] = Vero E6 cell cytotoxicity, dose response, cytotoxicity control for non-replicating M. tuberculosis project, secondary assay (AID 492998); assay type: functional, VeroE6; conditions: Vero C1008
[8] = viability of PTEN-deleted HCT116 cells – cell-based, HCT116 PTEN knockout, dose response (AID 1047); assay type: functional;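 note: HCT116 colon tumor cells with PTEN knocked out; cells exposed to compound for 60 hours before readout; potency for loss of cell viability measured by luminescence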
[9] = molecular target: Sphingosine 1-phosphate receptor 2 (Homo sapiens, UniProt O95136); assay: Dose Response Cell Based Assay for Antagonists of the S1P2 Receptor. [Related pubchem assays: 856, 736 ]; assay type: functional
Sequence of Sphingosine 1-phosphate receptor 2 (O95136 whole entry): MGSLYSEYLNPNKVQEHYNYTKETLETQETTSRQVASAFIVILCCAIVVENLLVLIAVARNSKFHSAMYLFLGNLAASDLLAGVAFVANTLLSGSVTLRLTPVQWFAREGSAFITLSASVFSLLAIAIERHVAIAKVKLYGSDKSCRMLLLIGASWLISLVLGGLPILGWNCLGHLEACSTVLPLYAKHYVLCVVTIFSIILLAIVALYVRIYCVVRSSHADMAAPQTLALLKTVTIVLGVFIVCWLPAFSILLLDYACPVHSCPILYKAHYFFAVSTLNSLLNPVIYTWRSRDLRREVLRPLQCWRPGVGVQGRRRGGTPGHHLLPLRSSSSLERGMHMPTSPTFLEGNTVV

[10] = Trypanosoma cruzi growth suppression in host cells – NIH3T3 host cells, beta-gal luminescence, confirmation (AID 2044); assay type: functional, cell-based;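 note: intracellular parasites grown in NIH/3T3 mouse fibroblasts as host cells; luminescent beta-galactosidase reporter signal from transgenic T. cruzi replicating inside host cells; inhibitors lower the luminescence signal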
[11] = HEK-293T viability loss after treatment – luminescence, T-cell screen hits, cytotoxicity control for TCR NF-kB inhibitor project, dose response (AID 489026); assay type: functional, cell-based;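 note: cells exposed to compound about 14 hours before the viability readout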
cells = assay type: functional
[12] = NIH3T3 cell viability loss – ATP luminescence, mouse fibroblasts, counter-screen, dose response (AID 2010); assay type: functional, cell-based;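 note: cells exposed to compound for about 90 hours before reading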
[13] = loss of viability in HepG2 cells – cell-based, CellTiter-Glo, cherry-picked, cytotoxicity control for Shn3 inhibitor project, dose response (AID 624134); assay type: functional
[14] = viability of HCT116 lacking mutant beta-catenin – cell-based, human colon tumor, dose response (AID 1045); assay type: functional;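 note: HCT116 colon tumor cells with beta catenin knocked out; cells exposed to compound for 60 hours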
[15] = reduction of Shn3 3'UTR-driven luciferase in osteoblasts – cell-based, Clone20 osteoblasts, firefly luciferase, cherry-picked, dose response (AID 624132); assay type: functional;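 note: firefly luciferase luminescence from reporter carrying the Shn3 3'UTR in osteoblasts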
[16] = HPDE-C7 pancreatic duct cell viability loss – fluorescence, HTS (AID 430); assay type: functional, cell-based; conditions: Homo sapiens
[17] = THP-1 cell cytotoxicity, dose response, cytotoxicity control for non-replicating M. tuberculosis project (AID 489025); assay type: functional
[18] = non-specific 3'UTR reporter inhibition in Clone20-Shn3RL – cell-based, Renilla luciferase, cherry-picked, counter-screen for Shn3 inhibitor project, dose response (AID 624133); assay type: functional
Phospholipase A2 = Phospholipase A2 (Homo sapiens, UniProt P04054); assay type: functional;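 note: confirmatory dose-response counterscreen on phospholipase A2, testing hits that came from an ultra-high-throughput screen for ATG4B inhibitors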
Sequence of Phospholipase A2 (P04054 whole entry): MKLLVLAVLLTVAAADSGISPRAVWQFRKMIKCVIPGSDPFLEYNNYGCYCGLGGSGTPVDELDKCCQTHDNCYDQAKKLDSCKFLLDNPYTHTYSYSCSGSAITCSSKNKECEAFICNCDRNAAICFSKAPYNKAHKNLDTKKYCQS

[19] = molecular target: Voltage-gated inwardly rectifying potassium channel KCNH2 (Homo sapiens, UniProt Q12809); assay: concentration-dependent hERG rescue from blockers – cell-based, thallium flux, dose response (AID 2121); assay type: ADME
Sequence of Voltage-gated inwardly rectifying potassium channel KCNH2 (Q12809 whole entry): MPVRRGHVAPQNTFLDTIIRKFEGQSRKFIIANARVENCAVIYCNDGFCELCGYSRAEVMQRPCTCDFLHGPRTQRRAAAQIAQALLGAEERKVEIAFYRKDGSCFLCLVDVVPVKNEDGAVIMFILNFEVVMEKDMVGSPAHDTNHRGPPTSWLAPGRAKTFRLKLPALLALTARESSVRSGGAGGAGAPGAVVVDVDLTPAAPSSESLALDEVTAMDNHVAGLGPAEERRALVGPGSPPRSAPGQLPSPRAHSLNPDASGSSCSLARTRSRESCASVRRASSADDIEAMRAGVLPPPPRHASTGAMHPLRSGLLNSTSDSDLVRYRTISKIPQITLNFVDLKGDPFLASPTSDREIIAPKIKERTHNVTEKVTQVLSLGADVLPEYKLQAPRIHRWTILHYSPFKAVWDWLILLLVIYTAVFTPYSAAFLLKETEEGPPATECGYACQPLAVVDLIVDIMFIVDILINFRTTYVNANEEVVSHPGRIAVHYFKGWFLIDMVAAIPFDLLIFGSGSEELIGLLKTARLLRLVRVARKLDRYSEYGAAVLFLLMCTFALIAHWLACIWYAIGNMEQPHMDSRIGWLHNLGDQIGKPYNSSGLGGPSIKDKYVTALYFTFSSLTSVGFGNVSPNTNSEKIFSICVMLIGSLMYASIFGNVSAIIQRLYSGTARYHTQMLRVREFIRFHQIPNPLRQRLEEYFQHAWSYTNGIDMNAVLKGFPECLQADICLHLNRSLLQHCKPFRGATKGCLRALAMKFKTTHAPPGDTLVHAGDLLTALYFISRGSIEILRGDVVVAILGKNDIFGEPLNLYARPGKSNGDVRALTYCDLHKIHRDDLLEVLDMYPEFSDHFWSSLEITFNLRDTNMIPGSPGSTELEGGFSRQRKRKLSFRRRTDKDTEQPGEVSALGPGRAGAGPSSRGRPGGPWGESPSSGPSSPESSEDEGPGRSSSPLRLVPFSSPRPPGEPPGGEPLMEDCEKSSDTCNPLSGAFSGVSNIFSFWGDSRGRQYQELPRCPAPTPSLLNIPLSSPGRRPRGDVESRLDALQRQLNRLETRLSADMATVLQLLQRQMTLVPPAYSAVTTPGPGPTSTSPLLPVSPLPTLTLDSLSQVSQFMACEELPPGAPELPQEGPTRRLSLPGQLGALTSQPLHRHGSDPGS

Cysteine protease ATG4B = Cysteine protease ATG4B (Homo sapiens, UniProt Q9Y4P1); assay type: functional;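 note: Fluorescence-based dose-response confirmation assay measuring inhibition of ATG4B activity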
Sequence of Cysteine protease ATG4B (Q9Y4P1 whole entry): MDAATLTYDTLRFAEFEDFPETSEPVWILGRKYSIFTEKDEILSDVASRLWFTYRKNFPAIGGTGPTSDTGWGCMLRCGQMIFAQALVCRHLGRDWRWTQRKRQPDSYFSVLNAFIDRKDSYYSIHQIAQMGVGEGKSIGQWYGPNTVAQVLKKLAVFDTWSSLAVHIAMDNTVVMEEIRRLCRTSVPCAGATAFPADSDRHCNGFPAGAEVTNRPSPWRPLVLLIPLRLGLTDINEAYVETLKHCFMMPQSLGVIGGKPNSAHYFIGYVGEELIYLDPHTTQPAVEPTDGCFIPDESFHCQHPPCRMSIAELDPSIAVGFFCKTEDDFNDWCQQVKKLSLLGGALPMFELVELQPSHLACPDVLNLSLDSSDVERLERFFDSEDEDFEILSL

Vero [20] = assay: cells; assay type: functional; conditions: Chlorocebus sabaeus
Vero [21] = assay: cells; assay type: functional, cell-based; conditions: Chlorocebus sabaeus
[22] = molecular target: Peroxisome proliferator-activated receptor gamma/Nuclear receptor corepressor 2 (Homo sapiens, UniProt P37231+Q9Y618); assay: Counterscreen for NR2E3 inverse agonists: TR-FRET-based biochemical high throughput dose response assay to identify inverse agonists of the interaction between peroxisome proliferator-activated receptor gamma (PPARg) and nuclear receptor co-repressor 2 (NCOR2).; assay type: functional
[23] = molecular target: Photoreceptor-specific nuclear receptor (Homo sapiens, UniProt Q9Y5X4); assay: ligands suppressing NR2E3 nuclear receptor activity – biochemical, TR-FRET, dose response (AID 463256); assay type: functional
Sequence of Photoreceptor-specific nuclear receptor (Q9Y5X4 whole entry): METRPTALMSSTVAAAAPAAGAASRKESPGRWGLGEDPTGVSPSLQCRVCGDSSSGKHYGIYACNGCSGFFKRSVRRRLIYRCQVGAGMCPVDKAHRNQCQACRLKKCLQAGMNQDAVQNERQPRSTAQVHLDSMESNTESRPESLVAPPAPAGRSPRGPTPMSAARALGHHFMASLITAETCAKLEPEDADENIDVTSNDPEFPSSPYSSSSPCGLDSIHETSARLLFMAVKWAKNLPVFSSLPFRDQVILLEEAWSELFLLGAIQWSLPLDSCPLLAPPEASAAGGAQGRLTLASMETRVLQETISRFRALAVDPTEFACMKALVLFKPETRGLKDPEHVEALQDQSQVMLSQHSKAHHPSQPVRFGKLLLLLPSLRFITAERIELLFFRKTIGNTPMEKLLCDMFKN

CCOC(=O)/C(C#N)=C/c1cc(C)n(-c2ccccc2)c1C
IC50 [1]: > 55.7 µM (not active)

CCOC(=O)c1cc(-c2ccc(/C=C3/C(=O)NC(=O)C(C#N)=C3C)o2)ccc1Cl
IC50 [2]: 23.4 µM (active)
IC50 (Aminopeptidase N): 80.1 µM (active)
EC50 [3]: 19.9 µM (active)
IC50 (Ephrin type-A receptor 4): 2.53 µM (active)
EC50 [4]: 17.4 µM (active)
IC50 [5]: 0.752 µM (active)

O=S1(=O)C=C(Sc2nc3cc(Cl)ccc3o2)c2ccccc21
EC50 [6]: 9.45 µM (active)
CC50 [7]: 5.94 µM (active)
EC50 [8]: 4.03 µM (active)
IC50 [9]: 3.47 µM (active)
EC50 [10]: 0.818 µM (active)
IC50 [11]: 54.3 µM (inactive)
IC50 (cells): 1.57 µM (active)
EC50 [12]: 1.58 µM (active)
AC50 [13]: 18.4 µM (active)
EC50 [14]: 3.65 µM (active)
AC50 [15]: < 0.26 µM (active)
EC50 [16]: 4.03 µM (active)
CC50 [17]: 8.54 µM (active)
AC50 [18]: 4.15 µM (active)

Cc1ccc(C(=O)CC(=O)c2cc(Cl)ccc2O)cc1
IC50 (Phospholipase A2): 8 µM (active)
EC50 [19]: 3.02 µM (active)
IC50 (Cysteine protease ATG4B): 11.1 µM (active)
CC50 (Vero [20]): 22.3 µM (active)
IC50 (Vero [21]): 23.8 µM (active)

Cn1c(SCC(=O)c2ccc3c(c2)Cc2ccccc2-3)nnc1-c1ccccc1
IC50 [22]: 4.12 µM (active)
IC50 [23]: 3.82 µM (active)
